Measured values published in US9073853B2, “Cycloalkane carboxylic acid derivatives as CXCR3 receptor antagonists” (Sanofi, priority 2011, dated 2015).

Molecular target: human CXCR3-A receptor (Homo sapiens (Human), UniProt P49682)
Assay: 125I-CXCL10 competition radioligand binding assay
Settings: displacement of 125I-CXCL10 from membranes of CHO cells expressing human recombinant CXCR3-A
In short: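 Membranes from a recombinant cell line expressing human CXCR3-A (10-20 μg protein) were incubated with 125I-CXCL10 and test compound for 60 min at 25° C, then filtered onto PEI-soaked GF/B filters and gamma-counted. IC50 and Hill slope came from four-parameter nonlinear fitting of competition curves.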

human CXCR3-A receptor, sequence (P49682 whole entry): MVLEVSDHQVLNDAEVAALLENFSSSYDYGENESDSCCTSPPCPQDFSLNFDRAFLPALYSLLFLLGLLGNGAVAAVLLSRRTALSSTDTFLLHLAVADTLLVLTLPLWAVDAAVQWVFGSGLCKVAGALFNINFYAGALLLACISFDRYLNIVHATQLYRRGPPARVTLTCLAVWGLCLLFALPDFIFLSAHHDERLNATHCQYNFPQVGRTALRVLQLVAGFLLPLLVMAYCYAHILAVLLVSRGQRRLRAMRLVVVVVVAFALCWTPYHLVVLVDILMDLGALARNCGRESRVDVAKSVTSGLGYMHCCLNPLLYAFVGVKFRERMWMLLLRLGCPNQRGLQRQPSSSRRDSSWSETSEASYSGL

SMILES	IC50
COc1cc(CN(C[C@H]2CC[C@H](C(=O)O)CC2)C(C)c2ccc(C#N)cc2)ccc1OCCn1c(=O)ccn(C)c1=O (stereo partly drawn) [Example 62, trans-4-[([1-(4-Cyano-phenyl)-ethyl]-{3-methoxy-4-[2-(3-methyl-2,6-dioxo-3,6-dihydro-2H-pyrimidin-1-yl)-ethoxy]-benzyl}-amino)-methyl]-cyclohexanecarboxylic acid]	0.2 µM
CCC(c1ccc(Cl)cc1)N(Cc1ccc(OCCn2c(=O)ccn(C)c2=O)c(C)c1)C[C@H]1CC[C@H](C(=O)O)CC1 (stereo partly drawn) [Example 64, trans-4-[([1-(4-Chloro-phenyl)-propyl]-{3-methyl-4-[2-(3-methyl-2,6-dioxo-3,6-dihydro-2H-pyrimidin-1-yl)-ethoxy]-benzyl}-amino)-methyl]-cyclohexanecarboxylic acid]	0.487 µM
CCC(c1ccc(Cl)cc1)N(Cc1ccc(OCCN2C(=O)CN(C)C2=O)c(OC)c1)C[C@H]1CC[C@H](C(=O)O)CC1 (stereo partly drawn) [Example 67, trans-4-[([1-(4-Chloro-phenyl)-propyl]-{3-methoxy-4-[2-(3-methyl-2,5-dioxo-imidazolidin-1-yl)-ethoxy]-benzyl}-amino)-methyl]-cyclohexanecarboxylic acid]	0.077 µM
CCc1cc(CN(C[C@H]2CC[C@H](C(=O)O)CC2)[C@H]2CCc3cc(Cl)ccc32)ccc1OCCN1C(=O)CCC1=O [Example 71, trans-4-[(((S)-5-Chloro-indan-1-yl)-{4-[2-(2,5-dioxo-pyrrolidin-1-yl)-ethoxy]-3-ethyl-benzyl}-amino)-methyl]-cyclohexanecarboxylic acid]	0.176 µM
C[C@@H](c1ccc(Cl)cc1)N(Cc1ccc(OCCN2C(=O)CCC2=O)c(F)c1)C[C@H]1CC[C@H](C(=O)O)CC1 [Example 73, trans-4-[([(S)-1-(4-Chloro-phenyl)-ethyl]-{4-[2-(2,5-dioxo-pyrrolidin-1-yl)-ethoxy]-3-fluoro-benzyl}-amino)-methyl]-cyclohexanecarboxylic acid]	0.154 µM
COc1cc(CN(C[C@H]2CC[C@H](C(=O)O)CC2)[C@H]2CCc3cc(Cl)c(Cl)cc32)ccc1OCCN1C(=O)CCC1=O [Example 74, trans-4-[(((S)-5,6-Dichloro-indan-1-yl)-{4-[2-(2,5-dioxo-pyrrolidin-1-yl)-ethoxy]-3-methoxy-benzyl}-amino)-methyl]-cyclohexanecarboxylic acid]	0.35 µM
CCc1cc(CN(C[C@H]2CC[C@H](C(=O)O)CC2)C(C)c2ccc3c(c2)CCO3)ccc1OCCN1C(=O)CCC1=O (stereo partly drawn) [Example 76, trans-4-[([1-(2,3-Dihydro-benzofuran-5-yl)-ethyl]-{4-[2-(2,5-dioxo-pyrrolidin-1-yl)-ethoxy]-3-ethyl-benzyl}-amino)-methyl]-cyclohexanecarboxylic acid]	0.045 µM
COc1cc(CN(C[C@H]2CC[C@H](C(=O)O)CC2)C(C)c2ccc(Cl)c(Cl)c2)ccc1OCCN1C(=O)CCC1=O (stereo partly drawn) [Example 77, trans-4-[([1-(3,4-Dichloro-phenyl)-ethyl]-{4-[2-(2,5-dioxo-pyrrolidin-1-yl)-ethoxy]-3-methoxy-benzyl}-amino)-methyl]-cyclohexanecarboxylic acid]	0.182 µM
Cc1cc(CN(C[C@H]2CC[C@H](C(=O)O)CC2)C(C)c2ccc(Cl)c(Cl)c2)ccc1OCCN1C(=O)CCC1=O (stereo partly drawn) [Example 78, trans-4-[([1-(3,4-Dichloro-phenyl)-ethyl]-{4-[2-(2,5-dioxo-pyrrolidin-1-yl)-ethoxy]-3-methyl-benzyl}-amino)-methyl]-cyclohexanecarboxylic acid]	0.27 µM
Cc1ccc(C(C)N(Cc2ccc(OCCN3C(=O)CCC3=O)c(C)c2)C[C@H]2CC[C@H](C(=O)O)CC2)cc1 (stereo partly drawn) [Example 83, trans-4-{[{4-[2-(2,5-Dioxo-pyrrolidin-1-yl)-ethoxy]-3-methyl-benzyl}-(1-p-tolyl-ethyl)-amino]-methyl}-cyclohexanecarboxylic acid]	0.146 µM
CCc1cc(CN(C[C@H]2CC[C@H](C(=O)O)CC2)[C@H]2CCc3c2ccc(Cl)c3Cl)ccc1OCCN1C(=O)CCC1=O [Example 86, trans-4-[(((S)-4,5-Dichloro-indan-1-yl)-{4-[2-(2,5-dioxo-pyrrolidin-1-yl)-ethoxy]-3-ethyl-benzyl}-amino)-methyl]-cyclohexanecarboxylic acid]	0.085 µM
COc1cc(CN(C[C@H]2CC[C@H](C(=O)O)CC2)[C@H]2CCc3cc(Cl)ccc32)ccc1SCCN1C(=O)CCC1=O [Example 88, trans-4-[(((S)-5-Chloro-indan-1-yl)-{4-[2-(2,5-dioxo-pyrrolidin-1-yl)-ethylsulfanyl]-3-methoxy-benzyl}-amino)-methyl]-cyclohexanecarboxylic acid]	0.023 µM

Now from value to compound:

IC50	SMILES
0.062 µM	CCC(c1ccc(Cl)cc1)N(Cc1ccc(OCCN2C(=O)CCC2=O)c(OC)c1)C[C@H]1CC[C@H](C(=O)O)CC1 (stereo partly drawn) [Example 63, trans-4-[([1-(4-Chloro-phenyl)-propyl]-{4-[2-(2,5-dioxo-pyrrolidin-1-yl)-ethoxy]-3-methoxy-benzyl}-amino)-methyl]-cyclohexanecarboxylic acid]
0.121 µM	CCC(c1ccc(Cl)cc1)N(Cc1ccc(OCCN2C(=O)CCC2=O)c(C)c1)C[C@H]1CC[C@H](C(=O)O)CC1 (stereo partly drawn) [Example 65, trans-4-[([1-(4-Chloro-phenyl)-propyl]-{4-[2-(2,5-dioxo-pyrrolidin-1-yl)-ethoxy]-3-methyl-benzyl}-amino)-methyl]-cyclohexanecarboxylic acid]
0.085 µM	CCC(c1ccc2c(c1)CCO2)N(Cc1ccc(CCCN2C(=O)CCC2=O)c(OC)c1)C[C@H]1CC[C@H](C(=O)O)CC1 (stereo partly drawn) [Example 66, trans-4-[([1-(2,3-Dihydro-benzofuran-5-yl)-propyl]-{4-[3-(2,5-dioxo-pyrrolidin-1-yl)-propyl]-3-methoxy-benzyl}-amino)-methyl]-cyclohexanecarboxylic acid]
0.143 µM	CCC(c1ccc(Cl)cc1)N(Cc1ccc(OCCn2c(=O)ccn(C)c2=O)c(OC)c1)C[C@H]1CC[C@H](C(=O)O)CC1 (stereo partly drawn) [Example 68, trans-4-[([1-(4-Chloro-phenyl)-propyl]-{3-methoxy-4-[2-(3-methyl-2,6-dioxo-3,6-dihydro-2H-pyrimidin-1-yl)-ethoxy]-benzyl}-amino)-methyl]-cyclohexanecarboxylic acid]
0.056 µM	CCC(c1ccc2c(c1)CCO2)N(Cc1ccc(OCCN2C(=O)CCC2=O)c(C)c1)C[C@H]1CC[C@H](C(=O)O)CC1 (stereo partly drawn) [Example 69, trans-4-[([1-(2,3-Dihydro-benzofuran-5-yl)-propyl]-{4-[2-(2,5-dioxo-pyrrolidin-1-yl)-ethoxy]-3-methyl-benzyl}-amino)-methyl]-cyclohexanecarboxylic acid]
0.18 µM	CCC(c1ccc(Cl)cc1)N(Cc1ccc(OCCN2C(=O)CN(C)C2=O)c(C)c1)C[C@H]1CC[C@H](C(=O)O)CC1 (stereo partly drawn) [Example 70, trans-4-[([1-(4-Chloro-phenyl)-propyl]-{3-methyl-4-[2-(3-methyl-2,5-dioxo-imidazolidin-1-yl)-ethoxy]-benzyl}-amino)-methyl]-cyclohexanecarboxylic acid]
0.825 µM	O=C1CCC(=O)N1CCOc1ccc(CN(C[C@H]2CC[C@H](C(=O)O)CC2)[C@H]2CCc3cc(Cl)ccc32)cc1F [Example 72, trans-4-[(((S)-5-Chloro-indan-1-yl)-{4-[2-(2,5-dioxo-pyrrolidin-1-yl)-ethoxy]-3-fluoro-benzyl}-amino)-methyl]-cyclohexanecarboxylic acid]
0.045 µM	CCc1cc(CN(C[C@H]2CC[C@H](C(=O)O)CC2)[C@@H](C)c2ccc(Cl)cc2)ccc1OCCN1C(=O)CCC1=O [Example 75, trans-4-[([(S)-1-(4-Chloro-phenyl)-ethyl]-{4-[2-(2,5-dioxo-pyrrolidin-1-yl)-ethoxy]-3-ethyl-benzyl}-amino)-methyl]-cyclohexanecarboxylic acid]
0.154 µM	C[C@@H](c1ccc(Cl)cc1)N(Cc1ccc(OCCN2C(=O)CCC2=O)cc1)C[C@H]1CC[C@H](C(=O)O)CC1 [Example 79, trans-4-[([(S)-1-(4-Chloro-phenyl)-ethyl]-{4-[2-(2,5-dioxo-pyrrolidin-1-yl)-ethoxy]-benzyl}-amino)-methyl]-cyclohexanecarboxylic acid]
0.245 µM	CCc1ccc(C(C)N(Cc2ccc(OCCN3C(=O)CCC3=O)c(OC)c2)C[C@H]2CC[C@H](C(=O)O)CC2)cc1 (stereo partly drawn) [Example 81, trans-4-({{4-[2-(2,5-Dioxo-pyrrolidin-1-yl)-ethoxy]-3-methoxy-benzyl}-[1-(4-ethyl-phenyl)-ethyl]-amino}-methyl)-cyclohexanecarboxylic acid]
0.046 µM	COc1cc(CN(C[C@H]2CC[C@H](C(=O)O)CC2)C(C)c2ccc(Cl)c(F)c2)ccc1OCCN1C(=O)CCC1=O (stereo partly drawn) [Example 82, trans-4-[([1-(4-Chloro-3-fluoro-phenyl)-ethyl]-{4-[2-(2,5-dioxo-pyrrolidin-1-yl)-ethoxy]-3-methoxy-benzyl}-amino)-methyl]-cyclohexanecarboxylic acid]
0.107 µM	COc1cc(CN(C[C@H]2CC[C@H](C(=O)O)CC2)C(C)c2ccc(C)cc2)ccc1OCCN1C(=O)CCC1=O (stereo partly drawn) [Example 84, trans-4-{[{4-[2-(2,5-Dioxo-pyrrolidin-1-yl)-ethoxy]-3-methoxy-benzyl}-(1-p-tolyl-ethyl)-amino]-methyl}-cyclohexanecarboxylic acid]
0.071 µM	C[C@@H](c1ccc(Cl)cc1)N(Cc1ccc(OCCN2C(=O)CCC2=O)c(CO)c1)C[C@H]1CC[C@H](C(=O)O)CC1 [Example 85, trans-4-[([(S)-1-(4-Chloro-phenyl)-ethyl]-{4-[2-(2,5-dioxo-pyrrolidin-1-yl)-ethoxy]-3-hydroxymethyl-benzyl}-amino)-methyl]-cyclohexanecarboxylic acid]
0.019 µM	COc1cc(CN(C[C@H]2CC[C@H](C(=O)O)CC2)[C@@H](C)c2ccc(Cl)cc2)ccc1SCCN1C(=O)CCC1=O [Example 87, trans-4-[([(S)-1-(4-Chloro-phenyl)-ethyl]-{4-[2-(2,5-dioxo-pyrrolidin-1-yl)-ethylsulfanyl]-3-methoxy-benzyl}-amino)-methyl]-cyclohexanecarboxylic acid]
